Where two headings read alike, the source gives them in different places.
Tests used:
[1] = Prodrug stability assay in bio-relevant media (FaSSIF with Pancreatin, GI tract stability); assay type: in vitro ADME; conditions: HPLC peak area of prodrug at 5 h / 0 h, 0.5 mg/mL Pancreatin in FaSSIF, 37° C.
Method: Prodrug Stability Assay in Bio-Relevant Media
The following assay was employed to evaluate the stability of the prodrugs in simulated gastrointestinal tract conditions. Preparation of fasted state simulated intestinal fluid (FaSSIF) using Phares SIF Powder was carried out according to protocols from Phare Drug Delivery AG (Baselland, Switzerland). For sample preparation, 10 μL stock solutions (10 mM) of prodrug substance in DMSO was added to 990 μL of 0.5 mg/mL Pancreatin solution (Fisher CAS#8049-47-6) in FaSSIF. Two samples were prepared for each compound. If the sample was a clear solution, it was directly analyzed by HPLC. If the sample was not clear, the sample was […] at 37° C. and observed 5 h later. If the sample was clear, HPLC analysis was directly performed. If the sample was still not clear, the sample was diluted with 100% ACN and assayed by HPLC. All the samples were vortexed for 3 min and observed before injection. For the diluted samples, the area is multiplied by a dilution factor when the data is analyzed. The analysis was carried out with an Agilent 1100 series HPLC with autosampler. The column was a Poroshell 120 EC-C18, 4.6×50 mm, […]. The flow rate was 1.8 mL/min, and the injection volume was 5 or 10 μL. UV detection was in the range 210-400 nm. The mobile phase consisted of solvent A (water plus 10 mM tetrabutylammonium bromide) and solvent B (acetonitrile) with a gradient of: 90% solvent A at 0 min, changing to 95% solvent B over 6 min, maintaining for 1.5 min, then reverting to 90% solvent A over 1.6 min. The HPLC peak area of the prodrug at 5 h was divided by the HPLC peak area of the prodrug at 0 h, to generate the % claimed parent ratio, which is summarized in Table 2 for gastrointestinal (GI) Tract stability.

HIV-1 (H9/IIIB strain) = test: Viking assay: antiviral potency in a multiple round HIV-1 infection assay in MT4-GFP cells; assay type: cell-based; conditions: Human immunodeficiency virus 1, IIIB, MT4-GFP cells infected with HIV-1 H9/IIIB, inhibition of reproductive ratio R0
Method: Assessing Antiviral Potency in a Multiple Round HIV-1 Infection Assay (Viking Assay)
The antiviral activity of the tenofovir prodrugs of the Examples herein was assessed in an assay that measures the rate of replication of HIV in cell culture, termed the Viking assay (VIral KINetics in Green cells) and performed as follows. HIV-1 replication was monitored using MT4-gag-GFP clone D3 (hereafter designated MT4-GFP), which are MT-4 cells modified to harbor a GFP reporter gene, the expression of which is dependent on the HIV-1 expressed proteins tat and rev. Productive infection of an MT4-GFP cell with HIV-1 results in GFP expression approximately 24 h post-infection. MT4-GFP cells were maintained at 37° C./5% CO2/90% relative humidity in RPMI 1640 supplemented with 10% fetal bovine serum, 100 U/ml penicillin/streptomycin, and 400 μg/ml G418 to maintain the reporter gene. For infections, MT4-GFP cells were placed in the same medium lacking G418 and infected overnight with HIV-1 (H9/IIIB strain) virus at an approximate multiplicity of infection of 0.01 in the same incubation conditions. Cells were then washed and re-suspended in either RPMI 1640 supplemented with 10% or 50% normal human serum (NHS) at 1.6×10^5 cells/mL (10% NHS or 50% NHS, respectively). Compound plates were prepared by dispensing compounds dissolved in DMSO into wells of 384 well poly-D-lysine-coated plates (0.2 μl/well) using an ECHO acoustic dispenser. Each compound was tested in a 10-point serial 3-fold dilution (typical final concentrations: 8.4 μM-0.42 nM). Controls included no inhibitor (DMSO only) and a combination of three antiviral agents (efavirenz, indinavir, an in-house integrase strand transfer inhibitor at final concentrations of 4 μM each). Cells were added (50 μL/well) to compound plates and the infected cells were maintained at 37° C./5% CO2/90% relative humidity.
Infected cells were quantified at two time points, ˜48 h and ˜72 h post-infection, by counting the number of green cells in each well using an Acumen eX3 scanner. The increase in the number of green cells over ˜24 h period gives the reproductive ratio, R0, which is typically 5-15 and has been shown experimentally to be in logarithmic phase (data not shown). Inhibition of R0 is calculated for each well, and IC50s determined by non-linear 4-parameter curve fitting.

[2] = 10% normal human serum, read-out: Viking, IC50 (10% NHS)
[3] = 50% normal human serum, read-out: Viking, IC50 (50% NHS)

| SMILES | GI Tract stability [1] | IC50 (HIV-1 (H9/IIIB strain); [2]) | IC50 (HIV-1 (H9/IIIB strain); [3]) |
| --- | --- | --- | --- |
| C/C(=N\OP(=O)(CO[C@H](C)Cn1cnc2c(N)ncnc21)N[C@@H](C)C(=O)OC(C)C)C1CCCC1 (stereo partly drawn) [Example 21, isopropyl (((R)-(((R)-1-(6-amino-9H-purin-9-yl)propan-2-yl)oxy)methyl)((((E)-1-cyclopentylethylidene)amino)oxy)phosphoryl)-L-alaninate; and isopropyl (((S)-(((R)-1-(6-amino-9H-purin-9-yl)propan-2-yl)oxy)methyl)((((E)-1-cyclopentylethylidene)amino)oxy)phosphonyl)-L-alaninate] | 79.5% | – | – |
| CC(C)OC(=O)[C@H](C)NP(=O)(CO[C@H](C)Cn1cnc2c(N)ncnc21)ON=C(C1CC1)C1CC1 (stereo partly drawn) [Example 10, isopropyl (((((R)-1-(6-amino-9H-purin-9-yl)propan-2-yl)oxy)methyl)(((dicyclopropylmethyl-ene)amino)oxy)phosphoryl)-L-alaninate] | 95.0% | 46.8 nM | 228 nM |
| CC(C)OC(=O)C(C)(C)NP(=O)(CO[C@H](C)Cn1cnc2c(N)ncnc21)ON=C1CCCC1 (mixture of isomers) [Example 27, isopropyl 2-(((R)-((((R)-1-(6-amino-9H-purin-9-yl)propan-2-yl)oxy)methyl)((cyclopentylideneamino)oxy)phosphoryl)amino)-2-methylpropanoate; and isopropyl 2-(((S)-((((R)-1-(6-amino-9H-purin-9-yl)propan-2-yl)oxy)methyl)((cyclopentylideneamino)oxy)phosphoryl)amino)-2-methylpropanoate] | 99.3% | – | – |
| CC(C)CC(CC(C)C)=NOP(=O)(CO[C@H](C)Cn1cnc2c(N)ncnc21)NC(C)(C)C(=O)OC(C)C (single isomer, unassigned) [Example 28] | 93.1% | 0.7 nM | 3.8 nM |

— patent US10450335B2, “Antiviral oxime phosphoramide compounds” (Merck Sharp & Dohme Corp., priority 2015, dated 2019)
